Values after ≈ are worked out from the molar mass of the structure shown. Where two headings read alike, the source gives them in different places. Starred links: 1 amine or outer side, 2 acyl side, 3 side chain; linkers in the order of their positions; H or OH if unused. Positions of bridges follow the written chain, without caps; N, C: chain ends. Non-standard residues stand in square brackets, D forms with d. Residues, ends and D or L forms follow the SMILES beside them. *: point of attachment. pTerphenylCO(4''-OnC5H11) = CCCCCOc1ccc(-c2ccc(-c3ccc(C(=O)*)cc3)cc2)cc1; Orn(4R-OH,5R-OH) = O=C([C@H](C[C@@H](O)[C@@H](O)N[*:3])N[*:1])[*:2]; hTyr(3S-OH,4S-OH) = N[C@H](C(=O)O)[C@H](O)[C@@H](O)c1ccc(O)cc1; Pro(3S-OH,4S-Me) = C[C@H]1CN[C@H](C(=O)O)[C@H]1O; Hyp = O=C(O)[C@@H]1C[C@@H](O)CN1
Columns and labels:
Format in all cases: cell-based
[1] = test system: Candida albicans ATCC 90029; experiment: MIC assay (CLSI M27-A3), Candida albicans ATCC 90029; details: for MIC: Candida albicans, read-out: MIC, Candida albicans ATCC 90029
Method: (§1) After a test compound was serially diluted, an MIC (minimum inhibitory concentration) assay was performed on the standard Candida strain and an MEC (minimum effective concentration) assay on the standard Aspergillus strain. The MIC assay was performed according to the guidelines of the Clinical and Laboratory Standards Institute (CLSI M27-A3) and the MEC assay according to the guidelines of the Clinical and Laboratory Standards Institute (CLSI M38-A2).
(§2) The frozen strain was passaged at least twice, and a single colony was picked and resuspended in normal saline or sterile water in a tube. The suspension was vortexed and adjusted to 0.5 McF (1×10^6 to 5×10^6 CFU/mL) using a spectrophotometer at wavelength 530 nm. The suspension was 50-fold diluted with normal saline and then 20-fold diluted with 1×RPMI 1640 broth (1×10^3 to 5×10^3 CFU/mL). 10 μL of the suspension was applied to an SDA plate for colony counting, with a range from about 10 to 50 single colonies.
(§3) At this time, the bacterium concentration in each well should be 0.5×10^3 to 2.5×10^3 CFU/mL.
(§4) For echinocandin drugs, Aspergillus was incubated at 28° C. for 21-26 h, and then the MEC results were read.
(§5) Yeast-type fungi: A disposable sealing film was applied to the 96-well plate, and the mixture was well mixed by shaking. Observation was performed through a plate reader with the naked eye. Comparisons were made to the growth control, and the minimum compound concentration corresponding to ≥50% growth inhibition was defined as MIC. Pictures were taken and saved using an automatic plate reader.

[2] = test system: Candida glabrata ATCC 15126; experiment: MIC assay (CLSI M27-A3), Candida glabrata ATCC 15126; details: for MIC: Nakaseomyces glabratus, read-out: MIC, Candida glabrata ATCC 15126
Method: as §1, §2, §3, §4, §5

[3] = test system: Candida parapsilosis ATCC 22019; experiment: MIC assay (CLSI M27-A3), Candida parapsilosis ATCC 22019; details: for MIC: Lodderomyces parapsilosis, ATCC22019, 24 h, read-out: MIC, Candida parapsilosis ATCC 22019
Method: as §1, §2, §3, §4, §5

Candida krusei ATCC 6258 = experiment: MIC assay (CLSI M27-A3), Candida krusei ATCC 6258; details: for MIC: Pichia kudriavzevii, ATCC6258, 24 h, read-out: MIC, Candida krusei ATCC 6258
Method: as §1, §2, §3, §4, §5

[4] = test system: Meyerozyma guilliermondii ATCC 6260; experiment: MIC assay (CLSI M27-A3), Meyerozyma guilliermondii ATCC 6260; details: for MIC: Meyerozyma guilliermondii, read-out: MIC, Meyerozyma guilliermondii ATCC 6260
Method: as §1, §2, §3, §4, §5

[5] = test system: Candida tropicalis ATCC 750; experiment: MIC assay (CLSI M27-A3), Candida tropicalis ATCC 750; details: for MIC: Candida tropicalis, read-out: MIC, Candida tropicalis ATCC 750
Method: as §1, §2, §3, §4, §5

[6] = test system: Aspergillus flavus ATCC 28539; experiment: MEC assay (CLSI M38-A2), Aspergillus flavus ATCC 28539; details: first batch; 28° C., 21-26 h
Method: The MIC assay was performed according to the guidelines of the Clinical and Laboratory Standards Institute (CLSI M27-A3) and the MEC assay according to the guidelines of the Clinical and Laboratory Standards Institute (CLSI M38-A2).
Colonies on the plate were covered with about 1 mL of 0.85% normal saline or sterile water (polysorbate 20 was added at a final concentration of 0.1%-0.01%). […] The homogeneous upper layer of the suspension was transferred to a new sterile tube, which was then sealed and vortexed for 15 s (be careful as the suspension may produce an aerosol when the cover is removed). The concentration of the suspension was adjusted until an OD value of 0.09-0.13 was achieved using a spectrophotometer at 530 nm. […] 100 μL of sample was added to each well of the 96-well plate within 2 h after dilution (the final spore concentration in the susceptibility testing plate was at 0.4×10^4 to 5×10^4 CFU/mL).
Aspergillus: For echinocandin drugs, comparisons were made to the growth control under a plate reader, and the minimum drug concentration that could cause the hyphae to form small, round, compact hyphal particles was defined as MEC. For accurate determination of MEC values, the plate must not be vortexed before reading.

[7] = ATCC90029, first batch, 24 h, 35° C., ≥50% growth inhibition
[8] = ATCC15126, first batch, 24 h, 35° C., ≥50% growth inhibition
[9] = ATCC6260, first batch, 24 h, 35° C.
[10] = ATCC750, first batch, 24 h, 35° C.
[11] = first batch, 24 h, 35° C., ≥50% growth inhibition
[12] = first batch, 24 h, 35° C., quality control strain

Molecule | MIC ([1]; ATCC90029, 24 h) | MIC ([2]; ATCC15126, 24 h) | MIC [3] | MIC (Candida krusei ATCC 6258) | MIC ([4]; ATCC6260, 24 h) | MIC ([5]; ATCC750, 24 h) | MEC, Aspergillus flavus ATCC 28539 [6] | MIC [1, 7] | MIC [2, 8] | MIC [4, 9] | MIC [5, 10] | MIC, Candida albicans ATCC 90029 [1, 11] | MIC, Candida glabrata ATCC 15126 [2, 11] | MIC, Candida parapsilosis ATCC 22019 [3, 12] | MIC, Candida krusei ATCC 6258 (Candida krusei ATCC 6258; [12]) | MIC, Meyerozyma guilliermondii ATCC 6260 ([4]; first batch, 24 h, 35° C.) | MIC, Candida tropicalis ATCC 750 ([5]; first batch, 24 h, 35° C.)
CCCCCOc1ccc(-c2ccc(-c3ccc(C(=O)N[C@H]4C[C@@H](O)[C@@H](O)NC(=O)[C@@H]5[C@@H](O)[C@@H](C)CN5C(=O)[C@H]([C@@H](C)O)NC(=O)[C@H]([C@H](O)[C@@H](O)c5ccc(O)cc5)NC(=O)[C@@H]5C[C@@H](O)CN5C(=O)[C@H]([C@@H](C)O)NC4=O)cc3)cc2)cc1 [Anidulafungin, reference compound] ({pTerphenylCO(4''-OnC5H11)}-[Orn(4R-OH,5R-OH)]T[Hyp][hTyr(3S-OH,4S-OH)]T[Pro(3S-OH,4S-Me)]; lactam 1-C) | 0.016 µg/mL (≈ 0.014 µM) | 0.125 µg/mL (≈ 0.11 µM) | 0.5 µg/mL (≈ 0.438 µM) | 0.063 µg/mL (≈ 0.0553 µM) | 1 µg/mL (≈ 0.877 µM) | 0.016 µg/mL (≈ 0.014 µM) | 0.031 µg/mL |  |  |  |  |  |  |  |  |  | 
CCCCCOc1ccc(-c2ccc(-c3ccc(C(=O)N[C@H]4C[C@@H](O)[C@@H](OCC[N+]5(C)CCCC5)NC(=O)[C@@H]5[C@@H](O)[C@@H](C)CN5C(=O)[C@H]([C@@H](C)O)NC(=O)[C@H]([C@H](O)[C@@H](O)c5ccc(O)cc5)NC(=O)[C@@H]5C[C@@H](O)CN5C(=O)[C@H]([C@@H](C)O)NC4=O)cc3)cc2)cc1 [Example 5] |  |  | 2 µg/mL | 0.125 µg/mL |  |  | 0.031 µg/mL | 0.125 µg/mL | 0.125 µg/mL | 4 µg/mL | 0.016 µg/mL |  |  |  |  |  | 
Caspofungin acetate [reference compound] |  |  |  |  |  |  | 0.031 µg/mL |  |  |  |  | 0.063 µg/mL | 0.25 µg/mL | 1 µg/mL | 1 µg/mL | 1 µg/mL | 0.016 µg/mL
CCCCCOc1ccc(-c2ccc(-c3ccc(C(=O)N[C@H]4C[C@@H](O)[C@@H](OCC5CCCC[N+]5(C)C)NC(=O)[C@@H]5[C@@H](O)[C@@H](C)CN5C(=O)[C@H]([C@@H](C)O)NC(=O)[C@H]([C@H](O)[C@@H](O)c5ccc(O)cc5)NC(=O)[C@@H]5C[C@@H](O)CN5C(=O)[C@H]([C@@H](C)O)NC4=O)cc3)cc2)cc1 (stereo partly shown) [Example 2] |  |  | 1 µg/mL | 0.125 µg/mL |  |  | 0.031 µg/mL | 0.125 µg/mL | 0.125 µg/mL | 2 µg/mL | 0.016 µg/mL |  |  |  |  |  | 

Reference: patent publication US12466856B2, “Echinocandin analogues and preparation method therefor” (SHANGHAI SENHUI MEDICINE CO., LTD., priority 2019, dated 2025)
